From publication PMC5652320 (ACS chemical biology, 2017)

What was measured:
His-PPARγ LBD = biological target: T1, His-PPARγ LBD (Homo sapiens, UniProt P37231); format: biochemical; conditions: TRAP220 coactivator peptide
T1 sequence (P37231 203-477 isoform P37231-2): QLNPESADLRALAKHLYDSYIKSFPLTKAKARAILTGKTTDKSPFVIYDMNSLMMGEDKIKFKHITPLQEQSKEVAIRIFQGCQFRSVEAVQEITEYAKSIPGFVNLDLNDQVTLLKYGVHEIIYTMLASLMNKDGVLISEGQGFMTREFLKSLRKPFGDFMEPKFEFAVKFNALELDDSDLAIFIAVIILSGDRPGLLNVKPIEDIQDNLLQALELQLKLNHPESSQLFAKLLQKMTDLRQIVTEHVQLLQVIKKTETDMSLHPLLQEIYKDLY

[1] = limited use of MRL20 concentrations to 30 μM in assays; cited from earlier work
full-length PPARγ = biological target: T2, full-length PPARγ (Homo sapiens, UniProt P37231); test: Full-length PPARγ/5xPPRE-luciferase reporter assay in HEK293T cells; format: cell-based; conditions: covalent analog ± 5 μM MRL20
T2 sequence (P37231 1-505): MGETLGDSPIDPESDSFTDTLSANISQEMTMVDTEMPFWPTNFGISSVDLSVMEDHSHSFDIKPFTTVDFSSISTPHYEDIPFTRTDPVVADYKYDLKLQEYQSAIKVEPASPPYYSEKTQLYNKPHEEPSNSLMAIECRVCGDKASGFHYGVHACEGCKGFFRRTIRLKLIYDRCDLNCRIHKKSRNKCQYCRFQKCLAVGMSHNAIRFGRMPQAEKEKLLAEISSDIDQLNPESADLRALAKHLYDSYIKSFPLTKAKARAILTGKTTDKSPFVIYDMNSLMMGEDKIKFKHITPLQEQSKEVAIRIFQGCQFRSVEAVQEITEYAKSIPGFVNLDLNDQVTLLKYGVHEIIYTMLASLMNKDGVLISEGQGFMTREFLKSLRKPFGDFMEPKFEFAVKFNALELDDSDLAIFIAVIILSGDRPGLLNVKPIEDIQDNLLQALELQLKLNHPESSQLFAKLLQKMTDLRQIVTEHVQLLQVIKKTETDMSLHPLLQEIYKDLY

In the case of `O=C(Nc1ccccc1)c1cc([N+](=O)[O-])ccc1Cl` [GW9662], the “TR-FRET response to rosiglitazone with covalent antagonist-bound PPARγ LBD” value (His-PPARγ LBD; rosiglitazone titration, endpoint 300 μM) is reported as “lower but not blocked”.

For `COc1ccc(C(=O)n2c(C)c(Cc3ccccc3O[C@@H](C)C(=O)O)c3cc(OC(F)(F)F)ccc32)cc1` [MRL20], the Solubility [1] is listed as “solubility issues”.

With `COc1ccc2nccc(NC(=O)c3cc([N+](=O)[O-])ccc3Cl)c2c1` [compound 22] the “Effect of covalent antagonist on binding of DHA to PPARγ” value (His-PPARγ LBD; DHA dose response and 30 μM endpoint) was “reduced binding of DHA to PPARγ better than GW9662 and T0070907” and the “Inhibition of allosteric activation of full-length PPARγ by MRL20” value (full-length PPARγ) was “inhibition of allosteric PPARγ activation”.
